# Data reported in paper PMC7681098 (Theranostics, 2021).
# Like-named read-outs stand apart in the source and are kept apart here.
# Key:
# c-Kit = biological target: T1, c-Kit (Homo sapiens, UniProt P10721); assay: Kinase inhibition assay (Reaction Biology); format: biochemical
# T1 construct: purchased Reaction Biology Corporation (PA, USA)
# ERK2/MAPK1 = biological target: T2, ERK2/MAPK1 (Homo sapiens, UniProt P28482); assay: Kinase inhibition assay (Reaction Biology); format: biochemical
# T2 construct: purchased Reaction Biology Corporation (PA, USA)
# T2 sequence (P28482 whole entry): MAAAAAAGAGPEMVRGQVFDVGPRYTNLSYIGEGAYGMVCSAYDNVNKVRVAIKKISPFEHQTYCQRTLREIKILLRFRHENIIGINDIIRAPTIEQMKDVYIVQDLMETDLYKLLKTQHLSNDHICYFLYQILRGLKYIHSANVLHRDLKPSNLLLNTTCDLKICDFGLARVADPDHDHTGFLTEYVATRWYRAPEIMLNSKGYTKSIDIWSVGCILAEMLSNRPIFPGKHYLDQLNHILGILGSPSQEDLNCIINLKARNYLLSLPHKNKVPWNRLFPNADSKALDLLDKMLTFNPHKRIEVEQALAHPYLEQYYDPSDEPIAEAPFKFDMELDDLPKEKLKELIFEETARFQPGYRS
# FGFR1 = biological target: T3, FGFR1 (Homo sapiens, UniProt P11362); assay: Kinase inhibition assay (Reaction Biology); format: biochemical
# T3 construct: purchased Reaction Biology Corporation (PA, USA)
# T3 sequence (P11362 22-822): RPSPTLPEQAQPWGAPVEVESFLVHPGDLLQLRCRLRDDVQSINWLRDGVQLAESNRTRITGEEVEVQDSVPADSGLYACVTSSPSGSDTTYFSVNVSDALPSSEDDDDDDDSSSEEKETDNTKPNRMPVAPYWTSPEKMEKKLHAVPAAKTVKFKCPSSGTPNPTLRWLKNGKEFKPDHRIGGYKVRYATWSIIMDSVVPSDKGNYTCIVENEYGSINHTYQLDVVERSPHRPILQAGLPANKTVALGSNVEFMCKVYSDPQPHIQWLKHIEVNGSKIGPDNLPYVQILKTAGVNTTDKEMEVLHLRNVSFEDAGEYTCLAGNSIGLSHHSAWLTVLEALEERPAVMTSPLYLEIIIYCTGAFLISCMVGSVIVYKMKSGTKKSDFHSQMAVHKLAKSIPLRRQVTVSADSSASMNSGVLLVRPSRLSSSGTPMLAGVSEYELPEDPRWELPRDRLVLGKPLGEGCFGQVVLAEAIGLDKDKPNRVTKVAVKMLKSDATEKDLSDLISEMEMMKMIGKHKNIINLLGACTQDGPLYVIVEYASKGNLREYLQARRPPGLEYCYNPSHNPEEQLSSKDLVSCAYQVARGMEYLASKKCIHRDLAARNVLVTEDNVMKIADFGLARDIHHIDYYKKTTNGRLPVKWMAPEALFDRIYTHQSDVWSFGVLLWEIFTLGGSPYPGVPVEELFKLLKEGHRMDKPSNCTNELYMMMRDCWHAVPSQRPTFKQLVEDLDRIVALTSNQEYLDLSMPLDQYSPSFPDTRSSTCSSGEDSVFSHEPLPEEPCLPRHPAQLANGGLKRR
# FLT1/VEGFR1 = biological target: T4, FLT1/VEGFR1 (Homo sapiens, UniProt P17948); assay: Kinase inhibition assay (Reaction Biology); format: biochemical
# T4 construct: purchased Reaction Biology Corporation (PA, USA)
# T4 sequence (P17948 27-1338): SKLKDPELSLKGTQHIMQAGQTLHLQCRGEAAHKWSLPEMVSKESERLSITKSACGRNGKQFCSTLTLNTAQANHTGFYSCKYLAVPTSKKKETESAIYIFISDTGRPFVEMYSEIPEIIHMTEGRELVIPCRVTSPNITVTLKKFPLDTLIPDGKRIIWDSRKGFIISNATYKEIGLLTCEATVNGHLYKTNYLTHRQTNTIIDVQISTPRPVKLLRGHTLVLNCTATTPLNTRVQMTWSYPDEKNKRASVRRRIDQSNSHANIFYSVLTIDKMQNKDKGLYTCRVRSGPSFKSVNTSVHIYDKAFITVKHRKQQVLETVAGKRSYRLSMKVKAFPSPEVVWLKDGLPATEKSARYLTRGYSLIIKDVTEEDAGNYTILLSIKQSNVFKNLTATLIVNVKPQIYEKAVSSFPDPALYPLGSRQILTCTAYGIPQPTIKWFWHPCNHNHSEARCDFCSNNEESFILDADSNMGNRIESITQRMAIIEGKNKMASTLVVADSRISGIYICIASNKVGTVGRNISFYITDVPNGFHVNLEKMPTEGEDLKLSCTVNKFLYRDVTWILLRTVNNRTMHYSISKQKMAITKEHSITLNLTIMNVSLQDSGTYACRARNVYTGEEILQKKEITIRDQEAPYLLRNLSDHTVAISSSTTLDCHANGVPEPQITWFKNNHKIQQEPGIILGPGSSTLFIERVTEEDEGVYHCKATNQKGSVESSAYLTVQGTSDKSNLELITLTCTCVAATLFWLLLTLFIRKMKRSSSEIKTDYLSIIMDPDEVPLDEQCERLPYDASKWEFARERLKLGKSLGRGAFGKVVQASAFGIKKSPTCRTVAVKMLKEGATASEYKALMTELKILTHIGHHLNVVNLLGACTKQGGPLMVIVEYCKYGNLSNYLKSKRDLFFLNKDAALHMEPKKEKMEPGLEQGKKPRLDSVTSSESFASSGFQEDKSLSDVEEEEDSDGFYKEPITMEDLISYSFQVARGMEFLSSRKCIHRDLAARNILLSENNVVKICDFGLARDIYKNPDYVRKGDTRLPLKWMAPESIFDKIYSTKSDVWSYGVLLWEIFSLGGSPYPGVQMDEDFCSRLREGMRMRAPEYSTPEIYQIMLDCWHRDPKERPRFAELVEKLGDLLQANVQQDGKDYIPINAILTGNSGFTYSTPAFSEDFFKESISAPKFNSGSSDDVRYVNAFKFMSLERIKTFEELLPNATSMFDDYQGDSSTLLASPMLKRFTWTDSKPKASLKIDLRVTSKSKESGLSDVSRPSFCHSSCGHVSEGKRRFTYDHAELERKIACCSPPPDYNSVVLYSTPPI
# FLT3 (D835Y) = biological target: T5, FLT3 (D835Y) (Homo sapiens, UniProt P36888, D835Y); assay: Kinase inhibition assay (Reaction Biology); format: biochemical
# T5 construct: purchased Reaction Biology Corporation (PA, USA)
# FLT4/VEGFR3 = biological target: T6, FLT4/VEGFR3 (Homo sapiens, UniProt P35916); assay: Kinase inhibition assay (Reaction Biology); format: biochemical
# T6 construct: purchased Reaction Biology Corporation (PA, USA)
# FMS = biological target: T7, FMS (Homo sapiens, UniProt P07333); assay: Kinase inhibition assay (Reaction Biology); format: biochemical
# T7 construct: purchased Reaction Biology Corporation (PA, USA)
# T7 sequence (P07333 20-972): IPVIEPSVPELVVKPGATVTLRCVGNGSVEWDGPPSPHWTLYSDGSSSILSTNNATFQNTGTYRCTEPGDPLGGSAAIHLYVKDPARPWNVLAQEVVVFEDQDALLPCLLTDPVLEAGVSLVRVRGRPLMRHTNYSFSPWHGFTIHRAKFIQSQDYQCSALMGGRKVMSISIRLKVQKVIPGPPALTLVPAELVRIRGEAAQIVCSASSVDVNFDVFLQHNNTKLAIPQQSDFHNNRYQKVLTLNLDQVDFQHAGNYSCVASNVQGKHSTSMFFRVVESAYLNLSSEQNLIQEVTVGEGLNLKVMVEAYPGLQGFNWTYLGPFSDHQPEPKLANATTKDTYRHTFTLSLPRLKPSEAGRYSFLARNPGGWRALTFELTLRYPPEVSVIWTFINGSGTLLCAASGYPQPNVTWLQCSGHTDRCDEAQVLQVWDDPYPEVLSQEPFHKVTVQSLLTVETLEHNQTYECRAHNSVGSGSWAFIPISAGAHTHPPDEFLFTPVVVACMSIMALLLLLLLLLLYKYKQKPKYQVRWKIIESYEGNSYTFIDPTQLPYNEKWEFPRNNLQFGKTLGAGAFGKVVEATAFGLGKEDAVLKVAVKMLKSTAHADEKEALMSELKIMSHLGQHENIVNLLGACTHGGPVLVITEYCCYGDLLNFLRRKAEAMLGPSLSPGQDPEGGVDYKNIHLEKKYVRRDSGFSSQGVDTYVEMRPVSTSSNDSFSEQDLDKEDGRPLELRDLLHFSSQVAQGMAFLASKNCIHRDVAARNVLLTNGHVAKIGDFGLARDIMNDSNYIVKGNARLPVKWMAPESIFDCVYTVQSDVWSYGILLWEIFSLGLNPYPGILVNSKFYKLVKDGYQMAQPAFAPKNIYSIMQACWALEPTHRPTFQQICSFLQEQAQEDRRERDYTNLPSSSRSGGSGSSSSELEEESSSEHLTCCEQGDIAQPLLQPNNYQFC
# JAK2 = biological target: T8, JAK2 (Homo sapiens, UniProt O60674); assay: Kinase inhibition assay (Reaction Biology); format: biochemical
# T8 construct: purchased Reaction Biology Corporation (PA, USA)
# MOLM13 cells = assay: Stroma-protecting model: proliferation in HS-5 conditional medium or normal medium; format: cell-based; details: Homo sapiens, MOLM-13, 72 h, MTT
# Method: At the indicated time point, cell viability was evaluated by MTT assay.
# (A) Indicated FLT3 mutations were expressed in BaF3 cells respectively. […] The autophosphorylation level of FLT3 was visualized and compared by western blot analysis. […] The CM was prepared from HS-5 cell culture for 4 days under routine culture conditions, clarified by centrifugation, and used immediately. The CM was added to complete medium at a final concentration of 40%. Cell viabilities were measured by MTT assay. Data were shown as mean±SD. […] The FLT3 phosphorylation levels of FLT3, STAT5 and ERK 1/2 were determined by Western blot.
# On the other hand, the bone marrow stroma-protecting environment containing a number of cytokines (e.g. FLT3 ligand, stromal derived factor-1, etc) could also decrease the drug efficacy of FLT3 inhibitors by activating FLT3 or its downstream effectors and building cross-talk between leukemic blasts and bone marrow microenvironment, [35].
# PK study in mice = format: in vivo, BALB/c mice; details: for MRT last: read-out: MRT(0-t); for MRT inf: read-out: MRT(0-∞); for concentration at 12 h: read-out: plasma concentration 12 h after administration; for half-life: read-out: apparent plasma half-life (t1/2z) (converted)
# Method: After dosing, blood samples were collected at indicated time points (15 min, 30 min, 45 min, 60 min, 90 min, 2 h, 4 h, 6 h, 8 h, 12 h, 24 h). Blood samples from each group were collected at each time point and the supernatant was collected and used for HPLC/LC-MAS analysis.
# Then, plasma levels of LT-171-861 were measured at each indicated time point. […] This inhibition efficacy lasted for 24 h, in accordance with the results of the PK experiment.
# FLT3 = assay: PD study in subcutaneous MV4-11 xenograft mice; format: in vivo, BALB/c nude mice; details: single dose 10 mg/kg intravenous
# Method: An MV4-11 cell tumor model was established by subcutaneous injection. Six-week-old female BALB/c nude mice were used for the subcutaneous model. […] Mice were sacrificed and tumor tissues were freshly dissected, homogenized, and centrifuged at 16000 g for 20 min. The phosphorylation levels of FLT3 were measured by Western blot.
# Blue square and solid line represent intravenous injection administration. […] Mice were sacrificed at indicated time points and then tumor tissues were dissected and lysed. Phosphorylation levels of FLT3, STAT5 and ERK1/2 were measured by western blotting. (C) Bone marrow mononuclear cells (BMMCs) were isolated from healthy C57BL/6 mice. […] Apoptosis assays were conducted after 36-hour incubation. […] 24 h after the last administration, c-Kit^+ cells were evaluated by flow cytometry. […] Data were shown with mean±SD.
# MV4-11 cells = assay: Bone marrow engrafted model, survival; format: in vivo, NOD-SCID mice; details: MV4-11 bone marrow engraftment; LT-171-861 10 mg/kg every other day, sorafenib orally every day
# Method: Six-week-old female NOD-SCID mice were treated with sub-lethal dose radiation (1.8 Gy) before intravenous injection of MV4-11 cells (5×10^6) or MOLM13 cells (5×10^6).
# Data were shown as mean±SD. […] Data were shown as mean±SD. (C) An engrafted tumor model was used to evaluate in vivo antitumor activity. The NOD/SCID mice were intravenously inoculated with MV4-11 cells. […] Log-rank testing was used to compare survival curves among treatment groups. […] (D) Apoptotic assays in engraft model were evaluated by TUNEL assay and cell proliferative activity was measured by Ki67 assay. Images were acquired at ×40 magnification. (E) BALB/c nude mice were subcutaneously inoculated with MV4-11 cells (5×10^6) and bodyweight of each mouse was recorded every other day. (F) Representative photo of tumors from BALB/c nude mice which were inoculated with MV4-11 cells. (G) BALB/c nude mice were subcutaneously inoculated with BaF3 cells bearing FLT3-ITD-N676D (n=6) and FLT3-ITD-F691L (n=6) respectively. […] (H) BALB/c mice were intravenously inoculated with cells used in (G). […] Log-rank testing was used to compare survival curves among treatment groups. […] (I) Representative photos of spleens dissected from mice in (H) inoculated with BaF3 cells bearing FLT-3-ITD-F691L.
# Mice that received vehicle treatment died within 30 days after intravenous injection of MV4-11 cells.
# [1] = tested on: AML patient blasts expressing FLT3-ITD; assay: Viability of AML patient blasts (MTT); format: cell-based, human; details: 72 h, compared with AC220 and sorafenib
# [2] = female, BALB/c, mouse, plasma, 10 mg/kg, IV
# [3] = female, BALB/c, mouse, plasma, po, 10 mg/kg, IG
# T1 sequence (P10721 26-976): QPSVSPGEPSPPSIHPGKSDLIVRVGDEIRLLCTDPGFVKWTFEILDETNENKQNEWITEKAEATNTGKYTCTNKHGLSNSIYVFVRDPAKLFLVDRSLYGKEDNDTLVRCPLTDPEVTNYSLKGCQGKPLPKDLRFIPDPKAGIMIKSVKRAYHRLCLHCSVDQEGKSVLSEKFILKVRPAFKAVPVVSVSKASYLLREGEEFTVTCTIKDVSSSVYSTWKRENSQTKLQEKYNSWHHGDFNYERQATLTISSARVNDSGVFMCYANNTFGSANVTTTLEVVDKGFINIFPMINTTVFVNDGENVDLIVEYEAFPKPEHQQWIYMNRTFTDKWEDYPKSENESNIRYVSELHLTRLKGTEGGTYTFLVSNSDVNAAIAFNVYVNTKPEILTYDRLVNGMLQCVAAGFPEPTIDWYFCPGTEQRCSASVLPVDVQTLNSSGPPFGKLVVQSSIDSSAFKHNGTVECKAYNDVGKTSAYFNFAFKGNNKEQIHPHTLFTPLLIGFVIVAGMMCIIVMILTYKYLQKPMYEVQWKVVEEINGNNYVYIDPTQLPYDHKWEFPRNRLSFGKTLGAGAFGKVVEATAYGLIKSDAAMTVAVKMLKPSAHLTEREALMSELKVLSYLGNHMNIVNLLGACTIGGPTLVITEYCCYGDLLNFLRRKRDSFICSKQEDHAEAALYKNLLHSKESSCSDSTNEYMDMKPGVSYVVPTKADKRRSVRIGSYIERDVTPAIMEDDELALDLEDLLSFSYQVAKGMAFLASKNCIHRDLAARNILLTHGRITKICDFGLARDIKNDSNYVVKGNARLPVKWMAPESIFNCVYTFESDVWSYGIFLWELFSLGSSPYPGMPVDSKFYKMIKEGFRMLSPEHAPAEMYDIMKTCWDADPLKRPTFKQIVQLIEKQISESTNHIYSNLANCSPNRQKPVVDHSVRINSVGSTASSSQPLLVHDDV
compound,measurement,setting,value
CN1CCN(Cc2ccc(NC(=O)c3n[nH]cc3Nc3ncnc4[nH]ccc34)cc2)CC1 [LT-171-861],IC50,c-Kit,> 200 nM
same,IC50,"c-Kit; 10 μM ATP, 10-dose IC50 mode",1810 nM
same,IC50,"ERK2/MAPK1; 10 μM ATP, 10-dose IC50 mode, read-out: IC50 ERK2/MAPK1",798 nM
same,IC50,ERK2/MAPK1; read-out: IC50 ERK2,> 200 nM
same,IC50,FGFR1,20 nM
same,IC50,FLT1/VEGFR1,5.6 nM
same,IC50,FLT3 (D835Y),< 1 nM
same,IC50,"FLT3 (D835Y); 10 μM ATP, 10-dose IC50 mode",0.132 nM
same,IC50,FLT4/VEGFR3,1.24 nM
same,IC50,FMS,> 200 nM
same,IC50,"FMS; 10 μM ATP, 10-dose IC50 mode",247 nM
same,IC50,JAK2,33.8 nM
same,IC50,"MOLM13 cells; HS-5 conditional medium (CM) 40%, read-out: IC50 proliferation of MOLM13 cells in CM",24.7 nM
same,IC50,"MOLM13 cells; normal medium (NM), read-out: IC50 proliferation of MOLM13 cells in NM",19.9 nM
same,CLz,"PK study in mice; 10 mg/kg, IG",314.0953 mL/min/kg
same,Vz,"PK study in mice; 10 mg/kg, IG",100.1863 L/kg
same,AUC(0-inf),PK study in mice; [2],3380 ng·h/mL
same,AUC(0-t),PK study in mice; [2],3310 ng·h/mL
same,clearance,"PK study in mice; female, BALB/c, mouse, plasma, 10 mg/kg, IV, read-out: CLz (converted)",49.3 mL/min/kg
same,MRT last,PK study in mice; [2],1.86 h
same,MRT inf,PK study in mice; [2],2.1 h
same,Vd,"PK study in mice; female, BALB/c, mouse, plasma, 10 mg/kg, IV, read-out: Vz",8.61 L/kg
same,Cmax,"PK study in mice; female, BALB/c, mouse, plasma, 10 mg/kg, intravenous injection (IV)",2170 ng/mL
same,Cmax,"PK study in mice; female, BALB/c, mouse, plasma, 10 mg/kg, oral administration",200 nM
same,Cmax,"PK study in mice; female, BALB/c, mouse, plasma, 10 mg/kg, oral administration (IG)",88 ng/mL
same,concentration at 12 h,"PK study in mice; female, BALB/c, mouse, plasma, intravenous, 10 mg/kg, i.v",50.1 nM
same,half-life,"PK study in mice; female, BALB/c, mouse, plasma, iv, 10 mg/kg, intravenous (tail) injection (IV)",2.02 h
same,bioavailability,"PK study in mice; female, BALB/c, mouse, plasma, oral versus intravenous at 10 mg/kg",~15%
same,concentration at 12 h,"PK study in mice; female, BALB/c, mouse, plasma, oral, 10 mg/kg, p.o",30 nM
same,AUC(0-inf),PK study in mice; [3],531 ng·h/mL
same,AUC(0-t),PK study in mice; [3],463 ng·h/mL
same,MRT last,PK study in mice; [3],4.28 h
same,MRT inf,PK study in mice; [3],5.95 h
same,Tmax,"PK study in mice; female, BALB/c, mouse, plasma, po, 10 mg/kg, oral administration (IG), read-out: Tmax (time to maximum plasma level)",1 h
same,half-life,"PK study in mice; female, BALB/c, mouse, plasma, po, 10 mg/kg, oral administration (IG)",3.68 h
same,duration of inhibition of FLT3 autophosphorylation and downstream effectors,FLT3,24 h
same,"inhibition of p-FLT3, p-STAT5 and p-ERK1/2 in tumor",FLT3; western blot,sustained inhibition
same,survival versus vehicle,MV4-11 cells,increased survival rates
same,antileukemic activity in blasts with FLT3-ITD mutations,[1],comparable antileukemic activity
